# In patent US20090291857A1, “METHODS TO IDENTIFY INHIBITORS OF THE UNFOLDED PROTEIN RESPONSE” (THE BOARD OF TRUSTEES OF THE LELAND STANFORD JUNIOR …, priority 2006, published 2009):
# Columns and labels:
# [1] = system: HT1080 tumor xenografts; experiment: Immunohistochemical analysis of tumor xenografts; assay type: in vivo, mouse; conditions: three doses, 50 mg/kg
# Method: Tumor-bearing mice were injected i.p. with hypoxyprobe (50 mg/kg) 1 hour prior to sacrifice. Mice were euthanised under anesthesia by cervical dislocation, and tumors were surgically resected, embedded in OCT compound (Sakura Tissue Tek), and frozen at −80° C. Tumors were sectioned at 8 μm, fixed in 4% paraformaldehyde, and blocked in PBS-4% BSA. Tissue sections were incubated overnight in block solution containing antisera specific for hypoxyprobe (1:250) and cleaved caspase-3 (1:400). Slides were washed three times with block solution and incubated for 2 hours at room temperature with anti-mouse Alexa 488 or anti-rabbit Alexa 594 (Invitrogen, San Diego, Calif.). Slides were washed five times in block solution, and coverslips mounted with Permount supplemented with DAPI.
# Immunohistochemical analysis of tumor xenografts. […] D. Quantification of tumor immunohistochemistry. At least 8 randomly chosen fields (>300 cells/field) per tumor were scored for pimonidazole and cleaved caspase-3 staining. A minimum of 3 tumors (250-300 mm^3 at harvest) were analyzed per treatment group. […]
# We further examined tumors from control and irestatin-treated mice for differences in cell survival. […] The increase in apoptosis was most pronounced in hypoxic tissue regions of tumors, as determined by co-immunoreactivity for pimonidazole adducts (FIG. 14C, bottom panel). […]
# [2] = system: HT1080 tet-off Flag-XBP-1s cells; experiment: Colony formation of HT1080 tet-off Flag-XBP-1s cells under hypoxia; assay type: cell-based, human; conditions: 2.5 μM, no dox, hypoxia 48 hours
# [3] = system: XBP-1s (5X-UPRE); experiment: 5X-UPRE luciferase reporter assay; assay type: cell-based, human
# Method: HT1080 cells stably expressing the XBP-luciferase construct were grown in 60 mm dishes to 60-70% confluency. Following hypoxia treatment, cells were washed twice with PBS, lysed in 400 μl 1× reporter lysis buffer (RLB) (Promega, Madison Wis.) for 30 min at 24° C. Lysates (100 μl) were mixed with an equal volume of luciferase substrate (Promega), and assayed using a luminometer. For 5×-UPRE-luciferase reporter assays, cells were co-transfected with the appropriate reporter plasmid and a control plasmid (pSV40-beta-gal) using Lipofectamine 2000 (Invitrogen, San Diego, Calif.). Twenty-four hours after transfection, fresh media was added, and cells were treated with Tm or shifted to hypoxia. After treatment, cells were lysed in 1× RLB and analyzed for luciferase activity as described above. Beta-galactosidase activity was determined using the beta-galactosidase enzyme assay system (Promega).
# A. XBP-luciferase reporter construct. […] After 24 hours, luciferase activity was analyzed in an automated plate reader. For each cell line, values are expressed as the percent inhibition of the median for Tm/Tg-treated wells, corrected for background. […] Values are expressed as the fold increases over uninduced levels. […] Cells were harvested, lysed, and analyzed by immunoblotting with antisera specific for HIF-1α (top), XBP-1s (middle) or actin (bottom). […]
structure (smiles),measurement,setting,value
Cc1csc(NC(=O)CSc2nc3c(c(C(F)(F)F)c2C#N)CCC3)n1 [Compound 9389],cleaved caspase-3 in tumors relative to vehicle,[1],significant increase
same,survival of hypoxic cells expressing Flag-XBP-1s,[2],minimal effect
same,diminution of 5X-UPRE luciferase response under hypoxia,"[3]; 48 hours of hypoxia, vehicle 170-fold",more than 90%
same,5X-UPRE luciferase induction over untreated cells,"[3]; Tm plus irestatin, Tm alone ~12-fold",< 4 fold
